Source: US20240218022A1, “ANTI-VISTA MACROCYCLIC PEPTIDES AND COMPOSITIONS” (BRISTOL-MYERS SQUIBB COMPANY, priority 2022, published 2024)
Starred links: 1 amine or outer side, 2 acyl side, 3 side chain; linkers in the order of their positions; H or OH if unused. Positions of bridges follow the written chain, without caps; N, C: chain ends. Non-standard residues stand in square brackets, D forms with d. Residues, ends and D or L forms follow the SMILES beside them. ξ: configuration not given here. Phe(3-Me) = Cc1cccc(C[C@H](N)C(=O)O)c1; βAsp = O=C(O)[C@H](CC(=O)[*:2])N[*:1]; Ile(3ξ) = CCC(C)[C@H](N)C(=O)O; NMeL = CN[C@@H](CC(C)C)C(=O)O; Ahp(2) = CCCCC[C@H](N)C(=O)O; NMeNle = CCCC[C@H](NC)C(=O)O; Tle = CC(C)(C)[C@H](N)C(=O)O; Pip = O=C(O)[C@@H]1CCCCN1; NHexGly = CCCCCCNCC(=O)O; Nle = CCCC[C@H](N)C(=O)O; Aun = NCCCCCCCCCCC(=O)O; Aze = O=C(O)[C@@H]1CCN1; AEEA = NCCOCCOCC(=O)O

target: T1, mouse VISTA (mVISTA) (Mus musculus, UniProt Q9D659); assay: Cell-Based Binding High-Content Assay For mVISTA (HC CBA mVISTA); details: read-out: HC CBA mVISTA IC50
T1 construct: expressed in transfected cells; host or cells: Human embryonic kidney 293T cells
T1 sequence (Q9D659 33-308): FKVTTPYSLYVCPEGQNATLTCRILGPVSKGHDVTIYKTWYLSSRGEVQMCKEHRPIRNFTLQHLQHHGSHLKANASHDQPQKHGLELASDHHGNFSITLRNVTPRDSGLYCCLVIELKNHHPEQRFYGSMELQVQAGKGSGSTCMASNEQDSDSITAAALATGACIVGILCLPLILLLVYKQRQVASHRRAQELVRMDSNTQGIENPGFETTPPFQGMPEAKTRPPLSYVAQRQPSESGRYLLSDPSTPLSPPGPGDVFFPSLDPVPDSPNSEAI
How it was run: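 This high-content binding assay uses HEK293T cells expressing murine VISTA, measuring displacement of 2 nM biotinylated peptide by fluorescent streptavidin imaging. IC50 values come from four-parameter logistic fitting.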

IC50 [nM]	SMILES
18.5	CCCCCCN1CC(=O)N[C@@H](Cc2ccc(O)cc2)C(=O)N[C@@H](CCCC)C(=O)N[C@@H](CC(N)=O)C(=O)N[C@@H](CCCNC(=N)N)C(=O)N(C)[C@@H](CCCC)C(=O)N[C@@H](CCCCC)C(=O)N(C)[C@@H](CC(C)C)C(=O)N[C@@H](C(C)C)C(=O)N[C@@H](CO)C(=O)N[C@H](C(=O)N[C@@H](CC(=O)NCCOCCOCC(=O)NCCCCCCCCCCC(=O)O)C(=O)O)CSCC(=O)N[C@@H](Cc2ccccc2)C(=O)N[C@@H](Cc2c[nH]c3ccccc23)C(=O)N[C@@H](CC(=O)O)C1=O [Example 2180] ({CH2CO}-FWD[NHexGly]Y[Nle]NR[NMeNle][Ahp(2)][NMeL]VSC[βAsp][AEEA][Aun]-OH; thioether N-14)
30.9	CCCCCCN1CC(=O)N[C@@H](Cc2ccc(O)cc2)C(=O)N[C@@H](CCCC)C(=O)N[C@@H](CC(N)=O)C(=O)N[C@@H](CCCNC(=N)N)C(=O)N(C)[C@@H](CCCC)C(=O)N[C@@H](CCCCC)C(=O)N2CCCC[C@H]2C(=O)N[C@@H](C(C)CC)C(=O)N[C@@H](CO)C(=O)N[C@H](C(=O)N[C@@H](CC(=O)NCCOCCOCC(=O)NCCCCCCCCCCC(=O)O)C(=O)O)CSCC(=O)N[C@@H](Cc2ccccc2)C(=O)N[C@@H](Cc2c[nH]c3ccccc23)C(=O)N[C@@H](CC(=O)O)C1=O (stereo partly shown) [Example 2182] ({CH2CO}-FWD[NHexGly]Y[Nle]NR[NMeNle][Ahp(2)][Pip][Ile(3ξ)]SC[βAsp][AEEA][Aun]-OH; thioether N-14)
16.9	CCCCCCN1CC(=O)N[C@@H](Cc2ccc(O)cc2)C(=O)N[C@@H](CCCC)C(=O)N[C@@H](CC(N)=O)C(=O)N[C@@H](CCCNC(=N)N)C(=O)N(C)[C@@H](CCCC)C(=O)N[C@@H](CCCCC)C(=O)N2CC[C@H]2C(=O)N[C@@H](C(C)CC)C(=O)N[C@@H](CO)C(=O)N[C@H](C(=O)N[C@@H](CC(=O)NCCOCCOCC(=O)NCCCCCCCCCCC(=O)O)C(=O)O)CSCC(=O)N[C@@H](Cc2ccccc2)C(=O)N[C@@H](Cc2c[nH]c3ccccc23)C(=O)N[C@@H](CC(=O)O)C1=O (stereo partly shown) [Example 2183] ({CH2CO}-FWD[NHexGly]Y[Nle]NR[NMeNle][Ahp(2)][Aze][Ile(3ξ)]SC[βAsp][AEEA][Aun]-OH; thioether N-14)
50.1	CCCCCCN1CC(=O)N[C@@H](Cc2ccc(O)cc2)C(=O)N[C@@H](CCCC)C(=O)N[C@@H](CC(N)=O)C(=O)N[C@@H](CCCNC(=N)N)C(=O)N(C)[C@@H](CCCC)C(=O)N[C@@H](CCCCC)C(=O)N2CCCC[C@H]2C(=O)N[C@@H](Cc2ccccc2)C(=O)N[C@@H](CO)C(=O)N[C@H](C(=O)N[C@@H](CC(=O)NCCOCCOCC(=O)NCCCCCCCCCCC(=O)O)C(=O)O)CSCC(=O)N[C@@H](Cc2ccccc2)C(=O)N[C@@H](Cc2c[nH]c3ccccc23)C(=O)N[C@@H](CC(=O)O)C1=O [Example 2185] ({CH2CO}-FWD[NHexGly]Y[Nle]NR[NMeNle][Ahp(2)][Pip]FSC[βAsp][AEEA][Aun]-OH; thioether N-14)
47.3	CCCCCCN1CC(=O)N[C@@H](Cc2ccc(O)cc2)C(=O)N[C@@H](CCCC)C(=O)N[C@@H](CC(N)=O)C(=O)N[C@@H](CCCNC(=N)N)C(=O)N(C)[C@@H](CCCC)C(=O)N[C@@H](CCCCC)C(=O)N2CC[C@H]2C(=O)N[C@@H](Cc2ccccc2)C(=O)N[C@@H](CO)C(=O)N[C@H](C(=O)N[C@@H](CC(=O)NCCOCCOCC(=O)NCCCCCCCCCCC(=O)O)C(=O)O)CSCC(=O)N[C@@H](Cc2ccccc2)C(=O)N[C@@H](Cc2c[nH]c3ccccc23)C(=O)N[C@@H](CC(=O)O)C1=O [Example 2188] ({CH2CO}-FWD[NHexGly]Y[Nle]NR[NMeNle][Ahp(2)][Aze]FSC[βAsp][AEEA][Aun]-OH; thioether N-14)
29	CCCCCCN1CC(=O)N[C@@H](Cc2ccc(O)cc2)C(=O)N[C@@H](CCCC)C(=O)N[C@@H](CC(N)=O)C(=O)N[C@@H](CCCNC(=N)N)C(=O)N(C)[C@@H](CCCC)C(=O)N[C@@H](CCCCC)C(=O)N2CCC[C@H]2C(=O)N[C@@H](C(C)(C)C)C(=O)N[C@@H](CO)C(=O)N[C@H](C(=O)N[C@@H](CC(=O)NCCOCCOCC(=O)NCCCCCCCCCCC(=O)O)C(=O)O)CSCC(=O)N[C@@H](Cc2ccccc2)C(=O)N[C@@H](Cc2cccc(C)c2)C(=O)N[C@@H](CC(=O)O)C1=O [Example 2189] ({CH2CO}-F[Phe(3-Me)]D[NHexGly]Y[Nle]NR[NMeNle][Ahp(2)]P[Tle]SC[βAsp][AEEA][Aun]-OH; thioether N-14)
24.4	CCCCCCN1CC(=O)N[C@@H](Cc2ccc(O)cc2)C(=O)N[C@@H](CCCC)C(=O)N[C@@H](CC(N)=O)C(=O)N[C@@H](CCCNC(=N)N)C(=O)N(C)[C@@H](CCCC)C(=O)N[C@@H](CCCCC)C(=O)N2CCC[C@H]2C(=O)N[C@@H](C(C)(C)C)C(=O)N[C@@H](CO)C(=O)N[C@H](C(=O)N[C@@H](CC(=O)NCCOCCOCC(=O)NCCCCCCCCCCC(=O)O)C(=O)O)CSCC(=O)N[C@@H](Cc2ccccc2)C(=O)N[C@@H](Cc2ccc(O)cc2)C(=O)N[C@@H](CC(=O)O)C1=O [Example 2190] ({CH2CO}-FYD[NHexGly]Y[Nle]NR[NMeNle][Ahp(2)]P[Tle]SC[βAsp][AEEA][Aun]-OH; thioether N-14)

SMILES	IC50 [nM]
CCCCCCN1CC(=O)N[C@@H](Cc2ccc(O)cc2)C(=O)N[C@@H](CCCC)C(=O)N[C@@H](CC(N)=O)C(=O)N[C@@H](CCCNC(=N)N)C(=O)N(C)[C@@H](CCCC)C(=O)N[C@@H](CCCCC)C(=O)N2CC[C@H]2C(=O)N[C@@H](C(C)C)C(=O)N[C@@H](CO)C(=O)N[C@H](C(=O)N[C@@H](CC(=O)NCCOCCOCC(=O)NCCCCCCCCCCC(=O)O)C(=O)O)CSCC(=O)N[C@@H](Cc2ccccc2)C(=O)N[C@@H](Cc2c[nH]c3ccccc23)C(=O)N[C@@H](CC(=O)O)C1=O [Example 2184] ({CH2CO}-FWD[NHexGly]Y[Nle]NR[NMeNle][Ahp(2)][Aze]VSC[βAsp][AEEA][Aun]-OH; thioether N-14)	23.1
CCCCCCN1CC(=O)N[C@@H](Cc2ccc(O)cc2)C(=O)N[C@@H](CCCC)C(=O)N[C@@H](CC(N)=O)C(=O)N[C@@H](CCCNC(=N)N)C(=O)N(C)[C@@H](CCCC)C(=O)N[C@@H](CCCCC)C(=O)N2CCCC[C@H]2C(=O)N[C@@H](C(C)C)C(=O)N[C@@H](CO)C(=O)N[C@H](C(=O)N[C@@H](CC(=O)NCCOCCOCC(=O)NCCCCCCCCCCC(=O)O)C(=O)O)CSCC(=O)N[C@@H](Cc2ccccc2)C(=O)N[C@@H](Cc2c[nH]c3ccccc23)C(=O)N[C@@H](CC(=O)O)C1=O [Example 2186] ({CH2CO}-FWD[NHexGly]Y[Nle]NR[NMeNle][Ahp(2)][Pip]VSC[βAsp][AEEA][Aun]-OH; thioether N-14)	24.4
CCCCCCN1CC(=O)N[C@@H](Cc2ccc(O)cc2)C(=O)N[C@@H](CCCC)C(=O)N[C@@H](CC(N)=O)C(=O)N[C@@H](CCCNC(=N)N)C(=O)N(C)[C@@H](CCCC)C(=O)N[C@@H](CCCCC)C(=O)N2CC[C@H]2C(=O)N[C@@H](C(C)(C)C)C(=O)N[C@@H](CO)C(=O)N[C@H](C(=O)N[C@@H](CC(=O)NCCOCCOCC(=O)NCCCCCCCCCCC(=O)O)C(=O)O)CSCC(=O)N[C@@H](Cc2ccccc2)C(=O)N[C@@H](Cc2c[nH]c3ccccc23)C(=O)N[C@@H](CC(=O)O)C1=O [Example 2187] ({CH2CO}-FWD[NHexGly]Y[Nle]NR[NMeNle][Ahp(2)][Aze][Tle]SC[βAsp][AEEA][Aun]-OH; thioether N-14)	13.3
